Assays:
multiple myeloma cells = test: Proliferation of multiple myeloma cells, curcumin vs AG490 (data not shown); format: cell-based, human; conditions: 100 μM, 24 hours (data not shown)
STAT3 phosphorylation [1] = test: Constitutive STAT3 phosphorylation in MDA 1986LN cells (Western blot); format: cell-based, human; conditions: AG490 100 μM, 8 hrs
Method: TU167, MDA 1986LN, TU 686, MDA 686LN and JMAR cells (2×10^6 cells) were lysed and whole cell extracts (30 μg) were resolved on 7.5% SDS-PAGE, electrotransferred to a nitrocellulose membrane and probed for phosphorylated-STAT3 (p-STAT3) and total STAT3 proteins. […] MDA 1986LN cells (2×10^6 cells) were treated with curcumin (50 μM) for indicated durations or with indicated concentrations of curcumin for 1 h and levels of p-STAT3 (upper panels) and STAT3 (lower panels) were examined in whole cell extracts by Western blotting.
MDA 1986LN cells (2×10^6 cells) were treated with curcumin (50 μM) for the indicated durations (upper panels) or treated for 1 h and washed twice with PBS to remove curcumin before re-suspending in fresh medium. Cells were removed at indicated times and lysed to prepare the whole cell extract (lower panels). The whole cell extracts (30 μg) were resolved on 7.5% SDS-PAGE, electrotransferred to a nitrocellulose membrane, probed for the p-STAT3 (upper panels) and striped and reprobed for STAT3 (lower panels).
MDA 1986LN cells (2×10^6 cells) were treated with indicated concentrations of AG490 for 8 h and whole extracts prepared. These whole-cell extracts (30 μg) were resolved on 7.5% SDS-PAGE, electrotransferred to a nitrocellulose membrane, probed for p-STAT3 (upper panel), striped and reprobed for STAT3 (middle panel) and β-actin (lower panel). […] The cells were treated with AG490 (100 μM) for the indicated durations and whole cell extracts prepared and analyzed as mentioned earlier. FIG. 15C compares the effect of curcumin and AG490 on proliferation of MDA 1986LN cells by MTT assay.
Since STAT3 was constitutively phosphorylated in MDA 1986LN cells, the ability of curcumin to inhibit the constitutive STAT3 phosphorylation was examined. MDA 1986LN cells were treated either with curcumin (50 μM) for different durations or with different concentrations of curcumin for 1 h and the p-STAT3 levels and STAT3 levels were determined. Curcumin inhibited the constitutively active STAT3 in a time-(FIG. 11B) and a dose-(FIG. 11C) manner. This curcumin-induced inhibition could be observed as early as 30 min and with a concentration as low as 25 μM.
MDA 1986LN cells were treated with curcumin for indicated times or for 1 h and the cells were washed twice with PBS to remove curcumin. The cells were then cultured in media for various durations and the levels of phosphorylated STAT3 were determined. […] However, the STAT3 levels were unaffected by curcumin treatment.
The concentration and the exposure time for AG490 to inhibit STAT3 phosphorylation in MDA 1986LN cells were determined. These cells were incubated with either different concentrations of AG490 or with 100 μM of AG490 for different durations and the levels of p-STAT3 and STAT3 were assessed.

STAT3 phosphorylation [2] = test: Constitutive STAT3 phosphorylation in U266 cells (Western blot); format: cell-based, human
STAT3 phosphorylation [3] = test: as above; format: cell-based, human; remark: listed apart in the source
Method: U266 cells (2×10^6) were treated with the indicated concentrations of curcumin for 1 h, or treated with 50 μM curcumin for the indicated durations and levels of phosphorylated-STAT3 (upper panel) and STAT3 (lower panel) were examined in whole cell extracts by Western Blotting. […] U266 cells (2×10^6) were treated with 50 μM curcumin for indicated durations, and examined for phosphorylated and nonphosphorylated-STAT3, and STAT5. […] U266 cells (2×10^6) were preincubated with curcumin (50 μM) for indicated durations before treatment with IFN-α (10 ng/ml) for additional 30 min and then examined for phosphorylated and nonphosphorylated-STAT1.
U266 cells (2×10^6 cells) were treated with 50 μM curcumin for the indicated durations (left panels) or treated for 1 h and washed with PBS two times to remove curcumin before resuspending in fresh medium. Cells were removed at indicated times and lysed to prepare the whole cell extract (right panels). Thirty micrograms of whole cell extracts were resolved on 7.5% SDS-PAGE, electrotransferred to a nitrocellulose membrane, probed for the phosphorylated-STAT3 (upper panels) and stripped and reprobed for STAT3 (middle panels) and β-actin (lower panels).
Thirty micrograms of whole-cell extract was resolved on 7.5% SDS-PAGE, electrotransferred to a nitrocellulose membrane, probed for the phospho-STAT3 (upper panel), stripped, and reprobed for STAT3 (middle panel) and β-actin (lower panel).
(§1) For detection of STAT proteins, whole-cell extracts were prepared by lysing the curcumin-treated cells in lysis buffer (20 mM Tris, pH 7.4, 250 mM NaCl, 2 mM EDTA, pH 8.0, 0.1% Triton-X100, 0.01 mg/ml aprotinin, 0.005 mg/ml leupeptin, 0.4 mM PMSF, and 4 mM NaVO4). Lysates were then spun at 14000 rpm for 10 min to remove insoluble material, and resolved on a 7.5% gel. After electrophoresis, the proteins were electrotransferred to a nitrocellulose membrane, blocked with 5% nonfat milk, and probed with anti-STAT antibodies (1:1000) overnight at 4° C. The blot was washed, exposed to HRP-conjugated secondary antibodies for 1 h, and finally examined by chemiluminescence (ECL, Amersham Pharmacia Biotech. Arlington Heights, Ill.).
Whether curcumin inhibits the constitutive STAT3 phosphorylation in U266 was investigated. U266 cells were incubated either with different concentrations of curcumin for 1 h or with 50 μM curcumin for different times. Curcumin inhibited the constitutively active STAT3 in a dose-(FIG. 1A) and time-(FIG. 1B) dependent manner. Curcumin-induced inhibition could be observed as early as 10 min and with a concentration as low as 10 μM.
Whether curcumin-induced inhibition of STAT3 phosphorylation was reversible was further examined. U266 cells were first treated for 60 min with curcumin, and then the cells were washed twice with PBS to remove curcumin. The cells were then cultured in the fresh medium for various durations, and the levels of phosphorylated STAT3 were measured.
In comparison, treatment of cells with 50 μM curcumin for 60 minutes was sufficient to inhibit STAT3 phosphorylation (see FIGS. 1A and 1B).

STAT3 phosphorylation [4] = test: IL-6-inducible STAT3 phosphorylation in RPMI 8226 cells (Western blot); format: cell-based, human; conditions: IL-6 10 ng/ml
Method: FIGS. 3A-C show& that IL-6 induces STAT3 phosphorylation in human multiple myeloma RPMI 8226 cells and curcumin inhibits it. […] U266, RPMI 8226, MM.1S, MM.1R and OCl cells (2×10^6) were lysed, and 30 μg of whole-cell extracts were resolved on 7.5% SDS-PAGE, electrotransferred to a nitrocellulose membrane, and probed for phosphorylated-STAT3 (upper panel) and STAT3 (lower panel). […] Thirty micrograms of whole cell extracts were resolved on 7.5% SDS-PAGE, electrotransferred to a nitrocellulose membrane, and probed for the phosphorylated-STAT3 (upper panel) and stripped and reprobed for STAT3 (middle panel) and β-actin (lower panel).
as §1
Since IL-6 is a growth factor for multiple myeloma and induces STAT3 phosphorylation (5, 6, 15), whether curcumin could inhibit IL-6-induced STAT3 phosphorylation was examined. […] IL-6 induced phosphorylation of STAT3 as early as 5 min and began to decline at 60 minutes (FIG. 3B). RPMI 8226 cells were then incubated with curcumin for different times and examined for IL-6-inducible STAT3 phosphorylation.
Exposure of cells to curcumin for 4 hours was sufficient to completely suppress IL-6-induced STAT3 phosphorylation. Curcumin alone had no effect on STAT3 phosphorylation in these cells (data not shown).

MM.1 cells = test: IL-6-induced proliferation of MM.1 cells; format: cell-based, human; conditions: serum starved 12 h, IL-6 48 h
Method: (§2) FIGS. 7A-B show& that IL-6 induces proliferation of human multiple myeloma cells and curcumin inhibits it. […] Cell proliferation assays were performed as described below. Results are shown as mean (±s.d.) of percent [^3H] thymidine incorporation or percent proliferation by MTT of triplicate cultures compared to the untreated control.
(§3) The antiproliferative effects of curcumin against different multiple myeloma cell lines were determined by the MTT dye uptake method as described earlier (28). Briefly, the cells (5000/well) were incubated in triplicate in a 96-well plate in the presence or absence of indicated test samples in a final volume of 0.1 ml for 24 h at 37° C. […] The OD at 570 nm was measured using a 96-well multiscanner autoreader (Dynatech MR 5000), with the extraction buffer serving as blank. Percent cell viability cell viability was calculated using the following formula: Percent cell viability=(OD of the experiment samples/OD of the control)×100.
(§4) The antiproliferative effects of curcumin were also monitored by the thymidine incorporation method. […] Six hours before the completion of experiment, cells were pulse treated with 0.5 μCi [^3H]thymidine, and the uptake of [^3H]thymidine was monitored using a Matrix-9600 β-counter (Packard Instruments, Downers Grove, Ill.). […]
(§5) Whether curcumin suppresses the proliferative effects of IL-6 was determined.

[5] = system: MDA 1986LN, JMAR and MDA 686LN cells; test: IL-6-induced proliferation of human HNSCC cells (thymidine incorporation); format: cell-based; conditions: serum starved 12 hrs, IL-6 48 hrs
Method: Human head and neck squamous cell carcinoma cells MDA 1986LN, JMAR and MDA 686LN were serum starved for 12 hrs. These cells were then cultured with the indicated concentrations of IL-6 for 48 hrs in serum-free medium. Cell viability was determined by thymidine incorporation method.
The present invention also investigated the effect of IL-6 on the proliferation of human HNSCC cells such as MDA 1986LN, JMAR and MDA 686LN by thymidine incorporation method. These cells were serum starved for 12 hrs and then cultured with different concentrations of IL-6 for 48 hrs in serum-free medium.

RPMI 8226 cells = test: IL-6-induced proliferation of RPMI 8226 cells; format: cell-based, human; conditions: serum starved 12 h, IL-6 48 h
Method: as §2
The antiproliferative effects of curcumin were also monitored by the thymidine incorporation method. For this, 5000 cells in 100 μl medium were cultured in triplicate in 96-well plates in the presence or absence of curcumin for 24 h. Six hours before the completion of experiment, cells were pulse treated with 0.5 μCi [^3H]thymidine, and the uptake of [^3H]thymidine was monitored using a Matrix-9600 β-counter (Packard Instruments, Downers Grove, Ill.).
To reconfirm previous reports (5, 6, 15, 31) that IL-6 induces proliferation of MM cells, U266, RPMI 8226, MM.1 and MM.1R were serum-starved for 12 h and then cultured them in the absence or presence of different concentrations of IL-6 for 48 h.

STAT3 phosphorylation [6] = test: STAT3 phosphorylation in MM.1S and MM.1R cells after TNF, LT or IL-6 (Western blot); format: cell-based, human; conditions: IL-6 10 minutes (positive control)
Method: The cell proliferation assay was performed as described below. Results are shown as mean (±s.d. indicated by error bar) of percent [^3H] thymidine incorporation of triplicate cultures compared to the untreated control. […] Cells were treated with IL-6 for 10 minutes as a positive control for STAT3 phosphorylation. Thirty micrograms of whole cell extract was were resolved on 7.5% SDS-PAGE, electrotransferred to a nitrocellulose membrane, and probed for phosphorylated-STAT3 (upper panel), stripped, and reprobed for STAT3 (lower panel).
as §1
MM.1S and MM.1R cells were serum starved for 12 h and then treated with TNF or lymphotoxin in the serum free medium.

STAT3 phosphorylation [7] = test: IL-6-induced STAT3 phosphorylation in JMAR cells (Western blot); format: cell-based, human; conditions: IL-6 10 ng/ml
Method: JMAR cells (2×10^6 cells) were treated with IL-6 (10 ng/ml) for the indicated time and whole cell extracts were prepared. These extracts (30 μg) were resolved on 7.5% SDS-PAGE, electrotransferred to a nitrocellulose membrane and probed for p-STAT3 (upper panel) and stripped and re-probed for STAT3 (lower panel). […] JMAR cells were pretreated with curcumin (50 μM) for indicated durations and stimulated with IL-6 (10 ng/ml) for 10 mins and whole cell extract prepared and probed as mentioned earlier.
JMAR cells were treated with IL-6 for different durations and the levels of p-STAT3 and STAT3 were examined. Treatment with IL-6 as early as 5 mins induced STAT3 phosphorylation in JMAR cells (FIG. 14A, upper panel). However, STAT3 levels were unaffected (FIG. 14A, lower panel).
Further, since IL-6 induced STAT3 phosphorylation in JMAR cells, the ability of curcumin to inhibit this STAT3 phosphorylation was also examined. JMAR cells were pretreated with curcumin for different durations and stimulated with IL-6 for 10 minutes. Both the status of p-STAT3 and STAT3 were determined in the whole cell extracts of these cells. Treatment with curcumin for as early as 30 minutes led to decline in the phosphorylation of STAT3 which declined further with increased exposure to curcumin. Exposure to curcumin for 2 hours inhibited STAT3 phosphorylation in JMAR cells (FIG. 14B, upper panel). The STAT3 levels were unaffected by this treatment (FIG. 14B, lower panel).

MM.1R cells = test: IL-6-induced proliferation of MM.1R cells; format: cell-based, human; conditions: serum starved 12 h, IL-6 48 h
Method: as §2, §3, §4, §5

U266 cells = test: IL-6-induced proliferation of U266 cells (thymidine incorporation, MTT); format: cell-based, human; conditions: serum starved 12 h, IL-6 48 h
Method: as §2, §3, §4, §5

| Molecule | proliferation of multiple myeloma cells (multiple myeloma cells) | inhibition of STAT3 phosphorylation (STAT3 phosphorylation [1]) | exposure needed to completely inhibit STAT3 phosphorylation (STAT3 phosphorylation [2]; 100 μM AG490) [h] | dose needed to completely inhibit STAT3 phosphorylation (STAT3 phosphorylation [2]; 8 h) [µM] | dose needed to suppress STAT3 phosphorylation (comparison AG490 vs curcumin) (STAT3 phosphorylation [3]) [µM] | earliest time of IL-6-induced phosphorylation of STAT3 (STAT3 phosphorylation [4]) [min] | time at which IL-6-induced STAT3 phosphorylation began to decline (STAT3 phosphorylation [4]) [min] | proliferation of MM.1 cells induced by IL-6 (MM.1 cells) | proliferation of human HNSCC cells induced by IL-6 [5] | proliferation response of RPMI 8226 cells to IL-6 (RPMI 8226 cells) | induction of STAT3 phosphorylation (STAT3 phosphorylation [6]) | earliest time of IL-6-induced STAT3 phosphorylation (STAT3 phosphorylation [7]) [min] | proliferation of MM.1R cells induced by IL-6 (MM.1R cells) | proliferation of U266 cells induced by IL-6 (U266 cells) |
| --- | --- | --- | --- | --- | --- | --- | --- | --- | --- | --- | --- | --- | --- | --- |
| N#C/C(=C/c1ccc(O)c(O)c1)C(=O)NCc1ccccc1 [AG490] | no effect | completely inhibited | 8 | 100 | 100 |  |  |  |  |  |  |  |  |  |
| IL-6: bacteria-derived recombinant human IL-6 provided by Sandoz Pharmaceutical |  |  |  |  |  | 5 | 60 | induced proliferation | induced proliferation of MDA 1986LN, JMAR and MDA 686LN cells | did not respond | induced STAT3 phosphorylation in both cell lines | 5 | induced proliferation | induced proliferation |

— patent publication US20050049299A1, “Selective inhibitors of stat-3 activation and uses thereof” (priority 2003, published 2005)
